From patent US20230310813A1, “DIMERIC NAPHTHALIMIDE COATING” (ALUCENT BIOMEDICAL, INC., priority 2020, published 2023)
Several values for one entry are separate records, joined by “and”; a condition that tells them apart may be missing. Equal entries are not always repeated. Entries after “also recorded” stand apart in the source; their conditions may differ.

Legend:
Format in all cases: physicochemical
[1] = Storage stability in solvent systems
Description: (§1) The solubility and stability of solvent systems were determined.

[2] = Room temperature stability of coated balloons; conditions: for amount of main impurity by LC / formation of impurities over time: 25° C., 60% RH, 0-24 months
Description: Angioplasty balloons coated with the Compound of Formula (I) (“10-8-10 compound”) were tested for their stability at 25° C. over a period of 0, 3, 6, and 12 months. The products described in Table 4 were placed in storage at 25° C.
Samples of each article were taken after 0, 3, 6, 12, 18 and 24 months of storage at 25° C., 60% RH.

[3] = Solubility of Compound of Formula (I) in solvent systems
Description: (§2) The non-limiting exemplary and comparative solvent systems listed in Table 1 were prepared by combining the components of the solvent system at the indicated concentrations. The resulting mixture was then mixed at room temperature until a colorless, clear mixture was obtained. Compound of Formula (I) was then added in the indicated amount and the resulting mixture was mixed at room temperature until a yellow/orange translucent mixture was obtained.
as §1

[4] = Stability of coated balloon coating after sterilization (UPLC/HPLC)
Description: A solvent system was prepared by combining ethanol and water and acetic acid in a volume ratio of 89.5:10:0.5. The resulting mixture was then mixed at room temperature until a colorless, clear mixture was obtained. Compound of Formula (I) was then added in the indicated amount and the resulting mixture was mixed at room temperature until a yellow/orange translucent mixture was obtained. This mixture was applied to a 5 mm×60 mm balloon by a pipetting method. The coated balloon was then dried to evaporate the solvent. A coated balloon with a coating thickness of 10 μg/mm^2 was obtained. The calculated amount of Compound of Formula (I) on the coated balloon was 7759 μg.
Coated balloons from Example 3 were sterilized either by ethylene oxide sterilization (EO), gamma sterilization (Gamma) or electron beam sterilization (E-Beam). A group of control balloons was left untreated (Control). After sterilization, a sample of the coating on each of the coated balloons was removed and analyzed.

[5] = 10-8-10 stability over 8 hours in solvent systems
Description: The purity of a composition was analyzed by UPLC or HPLC.
as §2

[6] = Stability of coated balloon in reduced oxygen and reduced moisture packaging; conditions: coated balloon stored in reduced oxygen and reduced moisture packaging
Description: Packaged coated balloons were prepared as follows. A coated balloon from Example 3 was placed in a foil pouch. The concentration of oxygen within the foil pouch was reduced by purging with nitrogen. A desiccant was added to the foil pouch before sealing the oxygen-purged foil pouch comprising the coated balloon and the desiccant.
At various time points after packaging, a coated balloon was taken out of its packaging. A sample of the coating on the coated balloon was removed and analyzed.

[7] = coated balloon after electron beam sterilization (E-Beam)
[8] = coated balloon after ethylene oxide sterilization (EO)
[9] = coated balloon after gamma sterilization (Gamma)
[10] = coated balloon, Control (not sterilized)

Q: For `NCCOCCOCCNc1ccc2c3c(cccc13)C(=O)N(CCOCCOCCN1C(=O)c3cccc4c(NCCOCCOCCN)ccc(c34)C1=O)C2=O` [Compound of Formula (I), 2,2′-((ethane-1,2-diylbis(oxy))bis(ethane-2,1-diyl))bis(6-((2-(2-(2-aminoethoxy)ethoxy)ethyl)amino)-1H-benzo[de]isoquinoline-1,3(2H)-dione)], which Storage stability ([1]; EtOH/Water (90:10)) is on record?
A: ✓

Q: And the Storage stability ([1]; EtOH/Water/Acetic Acid (89.5:10:0.5))?
A: ✓

Q: What about the solubility and stability ([1]; ethanol, water, acetic acid (89.5:10:0.5) solvent system) of the same compound?
A: exhibited both solubility and stability

Q: And the solubility and stability ([1]; ethanol/water (90:10) solvent system)?
A: exhibited both solubility and stability

Q: What about the degradation ([2]; coated article stored at room temperature) of the same compound?
A: degrades appreciably

Q: And the “degradation rate over time at room temperature” value ([2]; coating further comprising at least one antioxidant)?
A: reduced

Q: What about the “amount of main impurity by LC / formation of impurities over time” value ([2]; coating with BHT vs coating of only Compound of Formula (I)) of the same compound?
A: lower amounts; also recorded: reduction

Q: And the “amount of main impurity by LC / formation of impurities over time” value ([2]; coating with tromethamine vs coating of only Compound of Formula (I))?
A: lower amounts; also recorded: reduction

Q: And the “Solubility >2% w/w” value ([3]; Table 1, solvent system 89.5% Ethanol/10% water/0.5% acetic acid)?
A: ✓

Q: What about the “Solubility >2% w/w” value ([3]; Table 1, solvent system 99% Ethanol/1% Acetone) of the same compound?
A: ✓

Q: What about the “Solubility >2% w/w” value ([3]; Table 1, solvent system Ethanol/Acetone/BHT) of the same compound?
A: ✓

Q: What about the “Solubility >2% w/w” value ([3]; Table 1, solvent system Ethanol/MEK) of the same compound?
A: ✓

Q: And the “Solubility >2% w/w” value ([3]; Table 2, EtOH/Acetic Acid (99.5:0.5))?
A: ✓

Q: What about the “Solubility >2% w/w” value ([3]; Table 2, EtOH/Water (90:10)) of the same compound?
A: ✓

Q: And the “Solubility >2% w/w” value ([3]; Table 2, EtOH/Water (98:2))?
A: ✓

Q: And the “Solubility >2% w/w” value ([3]; Table 2, EtOH/Water/Acetic Acid (89.5:10:0.5))?
A: ✓

Q: And the “Solubility >2% w/w” value ([3]; Table 2, EtOH/Water/Acetic Acid (99.4:0.5:0.1))?
A: ✓

Q: And the “change in impurity concentration” value ([4]; coated article after radiation sterilization (gamma irradiation, electron beam))?
A: No change or minimal increase; also recorded: minimal increase

Q: And the degradation ([4]; coated article subjected to ethylene oxide sterilization)?
A: degrades appreciably

Q: What about the “Compound of Formula (I) (HPLC area-%)” value [4, 7] of the same compound?
A: 98.22 HPLC area-% and 98.33 HPLC area-% and 98.37 HPLC area-%

Q: And the “Total impurities (HPLC area-%)” value [4, 7]?
A: 1.78 HPLC area-% and 1.67 HPLC area-% and 1.63 HPLC area-%

Q: What about the “Compound of Formula (I) (HPLC area-%)” value [4, 8] of the same compound?
A: 94.75 HPLC area-% and 94.26 HPLC area-% and 94.35 HPLC area-%

Q: What about the “Total impurities (HPLC area-%)” value [4, 8] of the same compound?
A: 5.25 HPLC area-% and 5.74 HPLC area-% and 5.65 HPLC area-%

Q: And the “Compound of Formula (I) (HPLC area-%)” value [4, 9]?
A: 98.32 HPLC area-% and 98.37 HPLC area-% and 98.28 HPLC area-%

Q: And the “Total impurities (HPLC area-%)” value [4, 9]?
A: 1.68 HPLC area-% and 1.63 HPLC area-% and 1.72 HPLC area-%

Q: And the “Compound of Formula (I) (HPLC area-%)” value [4, 10]?
A: 98.33 HPLC area-% and 98.32 HPLC area-%

Q: What about the “Total impurities (HPLC area-%)” value [4, 10] of the same compound?
A: 1.67 HPLC area-% and 1.68 HPLC area-%

Q: What about the “10-8-10 stability over 8 hours” value ([5]; solvent system 89.5% Ethanol/10% water/0.5% acetic acid) of the same compound?
A: ✓

Q: What about the “10-8-10 stability over 8 hours” value ([5]; solvent system 99.5% Ethanol/0.5% acetic acid) of the same compound?
A: ✓

Q: What about the “10-8-10 stability over 8 hours” value ([5]; solvent system Ethanol/IPA) of the same compound?
A: ✓

Q: What about the degradation ([5]; solvent system comprising ethanol, water, and acetic acid) of the same compound?
A: does not degrade appreciably

Q: What about the “increase in impurity concentration” value [6] of the same compound?
A: minimal
